This note sets out measurements from patent publication US9290459B1, “Substituted bicyclic dihydropyrimidinones and their use as inhibitors of neutrophil elastase activity” (Boehringer Ingelheim International GmbH, priority 2013, dated 2016).

The structures appear in SMILES notation.

Sequence of Human neutrophil elastase (P08246 30-247): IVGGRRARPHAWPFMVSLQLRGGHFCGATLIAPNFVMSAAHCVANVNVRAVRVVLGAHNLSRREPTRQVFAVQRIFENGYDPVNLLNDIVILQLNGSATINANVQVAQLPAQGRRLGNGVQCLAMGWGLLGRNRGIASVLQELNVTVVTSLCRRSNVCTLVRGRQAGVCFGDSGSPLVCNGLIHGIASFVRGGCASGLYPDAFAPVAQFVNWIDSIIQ

This assay has as its target Human neutrophil elastase (Homo sapiens (Human), UniProt P08246). The assay is described as follows: Human Neutrophil Elastase Assay. Particulars: human neutrophil elastase, substrate MeOSuc-Ala-Ala-Pro-Val-AMC 250 μM, pH 7.5; read-out: IC50. In kind it is biochemical.
In general, IC50 refers to the concentration needed to halve the response being measured. On to `CS(=O)(=O)N1C(=O)N(c2cccc(C(F)(F)F)c2)C2=C(C(=O)CC2)C1c1ccc(C#N)cc1` (centres unmarked) [Example 9, 4-(3-(Methylsulfonyl)-2,5-dioxo-1-(3-(trifluoromethyl)phenyl)-2,3,4,5,6,7-hexahydro-1H-cyclopenta[d]pyrimidin-4-yl)benzonitrile], for which the IC50 amounted to 0.0051 µM.

For `CS(=O)(=O)N1C(=O)N(c2cccc(C(F)(F)F)c2)C2=C(C(=O)CC2)[C@@H]1c1ccc(C#N)cc1` [Example 9B, (S)-4-(3-(Methylsulfonyl)-2,5-dioxo-1-(3-(trifluoromethyl)phenyl)-2,3,4,5,6,7-hexahydro-1H-cyclopenta[d]pyrimidin-4-yl)benzonitrile], the IC50 was found to be 3.18 µM.

For the compound `CS(=O)(=O)c1cc(C#N)ccc1C1NC(=O)N(c2cccc(C(F)(F)F)c2)C2=C1C(=O)CC2` (centres unmarked) [Example 10, 4-(2,5-Dioxo-1-(3-(trifluoromethyl)phenyl)-2,3,4,5,6,7-hexahydro-1H-cyclopenta[d]pyrimidin-4-yl)-3-(methylsulfonyl)benzonitrile], the IC50 came out at 0.0058 µM.

Turning to `CS(=O)(=O)c1cc(C#N)ccc1[C@@H]1NC(=O)N(c2cccc(C(F)(F)F)c2)C2=C1C(=O)CC2` [Example 10B, (R)-4-(2,5-Dioxo-1-(3-(trifluoromethyl)phenyl)-2,3,4,5,6,7-hexahydro-1H-cyclopenta[d]pyrimidin-4-yl)-3-(methylsulfonyl)benzonitrile], the half-maximal inhibitory concentration (IC50) turned out to be 0.0984 µM.

Turning to `N#Cc1ccc(C2NC(=O)N(c3cccc(C(F)F)c3)C3=C2C(=O)CC3)cc1` (centres unmarked) [Example 11, 4-(1-(3-(Difluoromethyl)phenyl)-2,5-dioxo-2,3,4,5,6,7-hexahydro-1H-cyclopenta[d]-pyrimidin-4-yl)benzonitrile], the IC50 came out at 0.0374 µM.

`N#Cc1ccc(C2NC(=O)N(c3cccc(C(F)(F)F)c3)C3=C2C(=O)CC3)cn1` (centres unmarked) [Example 12, 5-(2,5-Dioxo-1-(3-(trifluoromethyl)phenyl)-2,3,4,5,6,7-hexahydro-1H-cyclopenta[d]-pyrimidin-4-yl)picolinonitrile]: the IC50 came out at 0.201 µM.

Turning to `N#Cc1ccc(C2NC(=O)N(c3cccc(C(F)(F)F)c3)C3=C2C(=O)CC3)c(Br)c1` (centres unmarked) [Example 13, 3-Bromo-4-(2,5-dioxo-1-(3-(trifluoromethyl)phenyl)-2,3,4,5,6,7-hexahydro-1H-cyclopenta[d]pyrimidin-4-yl)benzonitrile], the IC50 stood at 0.0179 µM.

On to `CCS(=O)(=O)c1cc(C#N)ccc1[C@@H]1NC(=O)N(c2cccc(C(F)(F)F)c2)C2=C1C(=O)CC2` [Example 14B, (R)-4-(2,5-Dioxo-1-(3-(trifluoromethyl)phenyl)-2,3,4,5,6,7-hexahydro-1H-cyclopenta[d]pyrimidin-4-yl)-3-(ethylsulfonyl)benzonitrile], for which the IC50 worked out at 0.033 µM.

`N#Cc1ccc(C2NC(=O)N(c3cccc(C(F)(F)F)c3)C3=C2C(=O)CC3)c(Cl)c1` (centres unmarked) [Example 15, 3-Chloro-4-(2,5-dioxo-1-(3-(trifluoromethyl)phenyl)-2,3,4,5,6,7-hexahydro-1H-cyclopenta[d]pyrimidin-4-yl)benzonitrile]: the IC50 was 0.0301 µM.

Consider `COc1cc(C#N)ccc1C1NC(=O)N(c2cccc(C(F)(F)F)c2)C2=C1C(=O)CC2` (centres unmarked) [Example 15.1], for which the IC50 came to 0.0421 µM.

Turning to `Cc1cc(C#N)ccc1C1NC(=O)N(c2cccc(C(F)(F)F)c2)C2=C1C(=O)CC2` (centres unmarked) [Example 15.2], the half-inhibitory concentration (IC50) worked out at 0.0286 µM.

Regarding `N#Cc1ccc(C2NC(=O)N(c3cccc(C(F)(F)F)c3)C3=C2C(=O)CC3)nc1` (centres unmarked) [Example 15.3, 6-(2,5-dioxo-1-(3-(trifluoromethyl)phenyl)-2,3,4,5,6,7-hexahydro-1H-cyclopenta[d]pyrimidin-4-yl)nicotinonitrile], the IC50 came out at 0.106 µM.

As for `N#Cc1ccc([C@H]2NC(=O)N(c3cccc(C(F)(F)F)c3)C3=C2C(=O)CC3)nc1` [Example 15.3A, (S)-6-(2,5-Dioxo-1-(3-(trifluoromethyl)phenyl)-2,3,4,5,6,7-hexahydro-1H-cyclopenta[d]pyrimidin-4-yl)nicotinonitrile], the IC50 stood at 0.0315 µM.

On to `N#Cc1ccc([C@@H]2NC(=O)N(c3cccc(C(F)(F)F)c3)C3=C2C(=O)CC3)nc1` [Example 15.3B, (R)-6-(2,5-Dioxo-1-(3-(trifluoromethyl)phenyl)-2,3,4,5,6,7-hexahydro-1H-cyclopenta[d]pyrimidin-4-yl)nicotinonitrile], for which the IC50 is 1.72 µM.

As for `CS(=O)(=O)c1cc(C#N)ccc1[C@@H]1NC(=O)N(c2cccc(C(F)F)c2)C2=C1C(=O)CC2` [Example 15.4B, (R)-4-(1-(3-(Difluoromethyl)phenyl)-2,5-dioxo-2,3,4,5,6,7-hexahydro-1H-cyclopenta[d]pyrimidin-4-yl)-3-(methylsulfonyl)benzonitrile], the IC50 amounted to 0.0577 µM.

As to `N#Cc1ccc(C2NC(=O)N(c3ccnc(C(F)(F)F)c3)C3=C2C(=O)CC3)cc1` (centres unmarked) [Example 15.5, 4-(2,5-Dioxo-1-(2-(tri-fluoromethyl)pyridin-4-yl)-2,3,4,5,6,7-hexahydro-1H-cyclopenta[d]pyrimidin-4-yl)benzonitrile], the IC50 is 0.11 µM.

`CC1CC2=C(C1=O)C(c1ccc(C#N)cc1)NC(=O)N2c1cccc(C(F)(F)F)c1` (centres unmarked) [Example 15.7]: the IC50 worked out at 0.066 µM.

For the compound `CSc1cc(C#N)ccc1C1NC(=O)N(c2cccc(C(F)(F)F)c2)C2=C1C(=O)CC2` (centres unmarked) [Example 16, 4-(2,5-Dioxo-1-(3-(trifluoromethyl)phenyl)-2,3,4,5,6,7-hexahydro-1H-cyclopenta[d]-pyrimidin-4-yl)-3-(methylthio)benzonitrile], the IC50 turned out to be 0.0149 µM.

Take `N#Cc1ccc(C2NC(=O)N(c3cccc(C(F)(F)F)c3)C3=C2C(=O)CC3)c(F)c1` (centres unmarked) [Example 18, 4-(2,5-Dioxo-1-(3-(trifluoromethyl)phenyl)-2,3,4,5,6,7-hexahydro-1H-cyclopenta[d]-pyrimidin-4-yl)-3-fluorobenzonitrile]: the IC50 was 0.0442 µM.

On to `CC(C(=O)NCCO)N1C(=O)N(c2cccc(C(F)(F)F)c2)C2=C(C(=O)CC2)C1c1ccc(C#N)cc1` (centres unmarked) [Example 20, 2-(4-(4-Cyanophenyl)-2,5-dioxo-1-(3-(trifluoromethyl)phenyl)-6,7-dihydro-1H-cyclopenta[d]pyrimidin-3(2H,4H,5H)-yl)-N-(2-hydroxyethyl)propanamide], for which the IC50 turned out to be 0.0091 µM.

As to `CS(=O)(=O)c1cc(C#N)ccc1C1C2=C(CCC2=O)N(c2cccc(C(F)(F)F)c2)C(=O)N1CC1CCOCC1` (centres unmarked) [Example 24.5], the IC50 is 0.0017 µM.

For `CS(=O)(=O)c1cc(C#N)ccc1C1C2=C(CCC2=O)N(c2cccc(C(F)(F)F)c2)C(=O)N1CCC1CCOCC1` (centres unmarked) [Example 24.6], the IC50 was less than 0.001 µM.

`CN1C(=O)N(c2cccc(C(F)F)c2)C2=C(C(=O)CC2)C1c1ccc(C#N)cc1` (centres unmarked) [Example 26, 4-(1-(3-(Difluoromethyl)phenyl)-3-methyl-2,5-dioxo-2,3,4,5,6,7-hexahydro-1H-cyclopenta[d]pyrimidin-4-yl)benzonitrile]: the IC50 is 0.0094 µM.

For `Cc1cc(C#N)ccc1C1C2=C(CCC2=O)N(c2cccc(C(F)(F)F)c2)C(=O)N1C` (centres unmarked) [Example 26.2], the IC50 amounted to 0.0064 µM.

In the case of `COc1cc(C#N)ccc1C1C2=C(CCC2=O)N(c2cccc(C(F)(F)F)c2)C(=O)N1C` (centres unmarked) [Example 26.3], the IC50 is 0.0095 µM.

`CN1C(=O)N(c2cccc(C(F)(F)F)c2)C2=C(C(=O)CC2)C1c1ccc(C#N)cc1Cl` (centres unmarked) [Example 26.4]: the IC50 was found to be 0.0262 µM.

Turning to `CN1C(=O)N(c2cccc(C(F)F)c2)C2=C(C(=O)CC2)[C@@H]1c1ccc(C#N)cc1` [Example 26B, (S)-4-(1-(3-(Difluoromethyl)phenyl)-3-methyl-2,5-dioxo-2,3,4,5,6,7-hexahydro-1H-cyclopenta[d]pyrimidin-4-yl)benzonitrile], the IC50 turned out to be 3.41 µM.

On to `CN1C(=O)N(c2cccc(C(F)F)c2)C2=C(C(=O)CC2)C1c1ccc(C#N)cc1S(C)(=O)=O` (centres unmarked) [Example 27, 4-(1-(3-(Difluoromethyl)phenyl)-3-methyl-2,5-dioxo-2,3,4,5,6,7-hexahydro-1H-cyclopenta[d]pyrimidin-4-yl)-3-(methylsulfonyl)benzonitrile], for which the IC50 was 0.0019 µM.

On to `CSc1cc(C#N)ccc1C1C2=C(CCC2=O)N(c2cccc(C(F)(F)F)c2)C(=O)N1C` (centres unmarked) [Example 27.1, 4-(3-methyl-2,5-dioxo-1-(3-(trifluoromethyl)phenyl)-2,3,4,5,6,7-hexahydro-1H-cyclopenta[d]pyrimidin-4-yl)-3-(methylthio)benzonitrile], for which the IC50 worked out at 0.0046 µM.

For `CN1C(=O)N(c2cccc(C(F)(F)F)c2)C2=C(C(=O)CC2)C1c1ccc(C#N)cc1Br` (centres unmarked) [Example 27.2], the IC50 stood at 0.0071 µM.

With `CCS(=O)(=O)c1cc(C#N)ccc1C1C2=C(CCC2=O)N(c2cccc(C(F)(F)F)c2)C(=O)N1C` (centres unmarked) [Example 27.3], the 50% inhibitory concentration (IC50) worked out at 0.0012 µM.

Regarding `CN1C(=O)N(c2ccnc(C(F)(F)F)c2)C2=C(C(=O)CC2)C1c1ccc(C#N)cc1` (centres unmarked) [Example 28, 4-(3-Methyl-2,5-dioxo-1-(2-(trifluoromethyl)pyridin-4-yl)-2,3,4,5,6,7-hexahydro-1H-cyclopenta[d]pyrimidin-4-yl)benzonitrile], the IC50 is 0.0367 µM.

Regarding `COC(=O)CCCS(=O)(=O)N1C(=O)N(c2cccc(C(F)(F)F)c2)C2=C(C(=O)CC2)C1c1ccc(C#N)cc1` (centres unmarked) [Example 34, Methyl 4-(4-(4-Cyanophenyl)-2,5-dioxo-1-(3-(trifluoromethyl)phenyl)-6,7-dihydro-1H-cyclopenta[d]pyrimidin-3(2H,4H,5H)-ylsulfonyl)butanoate], the IC50 came out at 0.0032 µM.

On to `CS(=O)(=O)N1C(=O)N(c2cccc(C(F)F)c2)C2=C(C(=O)CC2)C1c1ccc(C#N)cc1` (centres unmarked) [Example 36, 4-(1-(3-(Difluoromethyl)phenyl)-3-(methylsulfonyl)-2,5-dioxo-2,3,4,5,6,7-hexahydro-1H-cyclopenta[d]pyrimidin-4-yl)benzonitrile], for which the IC50 was found to be 0.0072 µM.

`CS(=O)(=O)c1cc(C#N)ccc1[C@@H]1C2=C(CCC2=O)N(c2cccc(C(F)(F)F)c2)C(=O)N1S(C)(=O)=O` [Example 37, 3-(Methylsulfonyl)-4-(3-(methylsulfonyl)-2,5-dioxo-1-(3-(trifluoromethyl)phenyl)-2,3,4,5,6,7-hexahydro-1H-cyclopenta[d]pyrimidin-4-yl)benzonitrile]: the IC50 is less than 0.001 µM.
